Values of other authors, collected in patent US20040248214A1, “Novel method of assaying immune activity” (priority 2001, published 2004).

Key:
NKT cells = conditions: cancer-bearing mouse

Row | Molecule | activation of NKT cells (NKT cells) | disappearance of cancer (NKT cells) | metastasis (NKT cells) | side effect (IL-12 per se directly administered into living body) | anti-cancer effect (in vivo)
1 | CCCCCCCCCCCCCCCCCCCCCCCCCC(=O)N[C@@H](CO[C@H]1O[C@H](CO)[C@H](O)[C@H](O)[C@H]1O)[C@H](O)[C@H](O)CCCCCCCCCCCCCC [α-galactosylceramide] | NKT cells were activated | disappearance of cancer was not noted | metastasis was suppressed | – | –
2 | IL-12: interleukin 12 | – | – | – | results in a side effect | has an anti-cancer effect
